Data reported in ChEMBL document CHEMBL1201862, “PubChem BioAssay data set” (2004).
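Assay format: 96-well plates, 48-hour exposure. GI50: concentration for 50% inhibition of growth.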 Active and inactive are the calls of the source. Rule as the data show it: active = GI50 up to about 1.1 µM and inactive = higher.

Assays:
Test in all cases: growth of human tumour cells (NCI), 48 h
RPMI-8226 = tested on: RPMI-8226
K562 = tested on: K562
COLO 205 = tested on: COLO 205
NCI-H23 = tested on: NCI-H23
U-251 = tested on: U-251
SF-268 = tested on: SF-268
SF-539 = tested on: SF-539
M14 = tested on: M14
OVCAR-4 = tested on: OVCAR-4
DU-145 = tested on: DU-145
MDA-MB-231 = tested on: MDA-MB-231
HCC 2998 = tested on: HCC 2998
KM12 = tested on: KM12
MDA-N = tested on: MDA-N
HCT-15 = tested on: HCT-15
RXF 393 = tested on: RXF 393
CAKI-1 = tested on: CAKI-1
SK-OV-3 = tested on: SK-OV-3
SNB-75 = tested on: SNB-75
HL-60 = tested on: HL-60

Row | SMILES | GI50 (RPMI-8226) | GI50 (K562) | GI50 (COLO 205) | GI50 (NCI-H23) | GI50 (U-251) | GI50 (SF-268) | GI50 (SF-539) | GI50 (M14) | GI50 (OVCAR-4) | GI50 (DU-145) | GI50 (MDA-MB-231) | GI50 (HCC 2998) | GI50 (KM12) | GI50 (MDA-N) | GI50 (HCT-15) [µM] | GI50 (RXF 393) | GI50 (CAKI-1) | GI50 (SK-OV-3) | GI50 (SNB-75) | GI50 (HL-60)
1 | COc1ccc(/C=C2\CCc3cc(OC)c(OC)cc3C2=O)cc1 | > 10 µM (inactive) | > 10 µM (inactive) | > 10 µM (inactive) | > 10 µM (inactive) | > 10 µM (inactive) | > 10 µM (inactive) | > 10 µM (inactive) | > 10 µM (inactive) | > 10 µM (inactive) | > 10 µM (inactive) | > 10 µM (inactive) | > 10 µM (inactive) | > 10 µM (inactive) | > 10 µM (inactive) | > 10 | > 10 µM (inactive) | > 10 µM (inactive) | > 10 µM (inactive) | 5.12 µM (inactive) | 9.25 µM (inactive)
2 | COc1nncc2[nH]c(-c3ccccc3)cc12 | 46.9 µM (inactive) | 56.6 µM (inactive) | > 100 µM (inactive) | > 100 µM (inactive) | 49 µM (inactive) | 65.8 µM (inactive) | > 100 µM (inactive) | 86.7 µM (inactive) | 93.5 µM (inactive) | 90.4 µM (inactive) | 49.8 µM (inactive) | > 100 µM (inactive) | > 100 µM (inactive) | 62.4 µM (inactive) | 53 | > 100 µM (inactive) | 96.8 µM (inactive) | > 100 µM (inactive) | 58.1 µM (inactive) | 30.9 µM (inactive)
3 | COc1ccc([N+](=O)[O-])c2c(NCCCN(C)C)ccnc12 | 1.65 µM (inactive) | 1.77 µM (inactive) | 2.39 µM (inactive) | 2.32 µM (inactive) | 4.93 µM (inactive) | 6.18 µM (inactive) | 4.6 µM (inactive) | 6.52 µM (inactive) | 1.51 µM (inactive) | 5.42 µM (inactive) | 8.3 µM (inactive) | 2.84 µM (inactive) | 7 µM (inactive) | 12.1 µM (inactive) | 1.85 | 2.31 µM (inactive) | 8.39 µM (inactive) | 11.2 µM (inactive) | 1.28 µM (inactive) | 5.14 µM (inactive)
4 | O=c1c2c(no[n+]2[O-])c2ccccc2n1-c1ccccc1 | 5.87 µM (inactive) | 2.74 µM (inactive) | 12.2 µM (inactive) | 2.44 µM (inactive) | 5.19 µM (inactive) | 8.22 µM (inactive) | 8.26 µM (inactive) | 2.65 µM (inactive) | 6.18 µM (inactive) | 20.4 µM (inactive) | 12.6 µM (inactive) | 10.5 µM (inactive) | 13.9 µM (inactive) | 3.4 µM (inactive) | 2.94 | 6.55 µM (inactive) | 2.65 µM (inactive) | 14.6 µM (inactive) | 10 µM (inactive) | 2.12 µM (inactive)
5 | CCOC(=O)c1c2ccccc2n2c(N)c(C(N)=O)nnc12 | > 100 µM (inactive) | > 100 µM (inactive) | > 100 µM (inactive) | 16.7 µM (inactive) | 15.2 µM (inactive) | 16 µM (inactive) | 16.2 µM (inactive) | > 100 µM (inactive) | > 100 µM (inactive) | > 100 µM (inactive) | 18.7 µM (inactive) | > 100 µM (inactive) | > 100 µM (inactive) | > 100 µM (inactive) | 78.9 | 16.1 µM (inactive) | 32.8 µM (inactive) | 13.9 µM (inactive) | 11.7 µM (inactive) | > 100 µM (inactive)
6 | COC1(CC[C@@H](C)COC2OC(CO)C(O)C(O)C2O)O[C@H]2C[C@H]3[C@@H]4CC=C5C[C@@H](OC6OC(CO)C(O)C(OC7OC(CO)C(O)C(O)C7O)C6OC6OC(C)C(O)C(O)C6O)CC[C@]5(C)[C@H]4CC[C@]3(C)[C@H]2[C@@H]1C (stereo not given in full) | 32.2 µM (inactive) | > 20.6 µM (inactive) | 9.04 µM (inactive) | 14.5 µM (inactive) | 1.89 µM (inactive) | 10.2 µM (inactive) | 2.74 µM (inactive) | 2.37 µM (inactive) | 9.91 µM (inactive) | 3.97 µM (inactive) | 0.885 µM (active) | 3.56 µM (inactive) | 2.08 µM (inactive) | 8.63 µM (inactive) | 3.28 | 5.71 µM (inactive) | 6.35 µM (inactive) | 4.01 µM (inactive) | 3.33 µM (inactive) | 6.19 µM (inactive)
7 | Cc1cc(C)c(-c2no/c(=N\S(=O)(=O)c3ccc(Cl)cc3)o2)c(C)c1 | 37.2 µM (inactive) | 49.5 µM (inactive) | 41.4 µM (inactive) | > 100 µM (inactive) | > 100 µM (inactive) | > 100 µM (inactive) | > 100 µM (inactive) | > 100 µM (inactive) | > 100 µM (inactive) | > 100 µM (inactive) | > 100 µM (inactive) | > 100 µM (inactive) | 57.9 µM (inactive) | > 100 µM (inactive) | > 100 | > 100 µM (inactive) | > 100 µM (inactive) | > 100 µM (inactive) | > 100 µM (inactive) | 42.1 µM (inactive)
8 | CC1=Nc2c(O)nc(S)nc2NC(c2c(Cl)cccc2Cl)C1 (stereo not given) | 0.583 µM (active) | 0.649 µM (active) | 1.87 µM (inactive) | 2.65 µM (inactive) | 0.993 µM (active) | 1.57 µM (inactive) | 1.75 µM (inactive) | 2.32 µM (inactive) | 2.74 µM (inactive) | 1.95 µM (inactive) | 0.519 µM (active) | 10.9 µM (inactive) | 1.75 µM (inactive) | 0.552 µM (active) | 3.05 | 5.26 µM (inactive) | 5.51 µM (inactive) | 7.28 µM (inactive) | 3.34 µM (inactive) | 0.552 µM (active)
9 | COc1cc(CCNC2=CC(=O)c3nc[nH]c3C2=O)ccc1O | 29.4 µM (inactive) | 34.1 µM (inactive) | 22.6 µM (inactive) | 20.7 µM (inactive) | 23.7 µM (inactive) | 38.9 µM (inactive) | 34.5 µM (inactive) | 17.5 µM (inactive) | 15.4 µM (inactive) | 20 µM (inactive) | 30.9 µM (inactive) | 20.7 µM (inactive) | 27.3 µM (inactive) | 18 µM (inactive) | 33 | 43.2 µM (inactive) | 48.3 µM (inactive) | 34.4 µM (inactive) | 19 µM (inactive) | 25.6 µM (inactive)
